The source of these data is patent US11596639B2, “Substituted indole Mcl-1 inhibitors” (Vanderbilt University, priority 2016, dated 2023).

Assay [1] relates to H929 human cancer cell lines. Description: Cellular viability / proliferation (Cell TiterGlo, 72 h). It is filed as cell-based. The following applies: Homo sapiens, NCI-H929, 72 h, read-out: GI50 on cellular proliferation of H929 human cancer cell lines, H929 cells, 72 h, Cell TiterGlo, 10% FBS. The procedure, abridged:
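1,000 cells/well, 10% FBS medium; compound added at 24 h, 2-fold dilutions from 50 μM top, DMSO <1% final. 72 h exposure, CellTiterGlo 30 min RT dark, luminescence read. IC50 by 4-parameter fit.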

The target in a further assay is Mcl-1 (Homo sapiens (Human), UniProt Q07820). In words: TR-FRET binding assay, FITC-Bak peptide and MBP-tagged Mcl-1. The note with it: read-out: Ki for Inhibition of Mcl-1 by TR-FRET assay. As for the experimental part: Compounds are diluted in DMSO in a 16-point, semilog serial dilution scheme. […] The plate was mixed and incubated for 3 hours at room temperature. […] TR-FRET signal is plotted and IC50 and Ki values are calculated in the same manner as the fluorescence polarization anisotropy based competition assays.
In general terms: In TR-FRET formats the signal depends on donor and acceptor labels being close together.

Sequence of Mcl-1 (Q07820 172-327): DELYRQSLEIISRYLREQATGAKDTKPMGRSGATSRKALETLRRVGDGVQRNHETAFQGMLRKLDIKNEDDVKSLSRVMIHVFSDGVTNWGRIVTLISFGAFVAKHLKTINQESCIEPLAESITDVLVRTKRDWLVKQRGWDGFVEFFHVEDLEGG

A word on the Ki: it is a measure of affinity in units of concentration, obtained from inhibition or displacement. Turning to `COc1ccc(N2C[C@@H](C)n3c(c(CCCOc4cc(C)c(Cl)c(C)c4)c4ccc(Cl)c(-c5c(C)nn(C)c5C)c43)C2=O)c2c1cc(C(=O)O)n2Cc1cccc(C)n1` [Example 593, (R)-7-(7-chloro-10-(3-(4-chloro-3,5-dimethylphenoxy)propyl)-4-methyl-1-oxo-6-(1,3,5-trimethyl-1H-pyrazol-4-yl)-3,4-dihydropyrazino[1,2-a]indol-2(1H)-yl)-4-methoxy-1-((6-methylpyridin-2-yl)methyl)-1H-indole-2-carboxylic acid], in assay [1], the GI50 was below 200 nM. Moreover, the inhibition constant Ki at Mcl-1 is below 0.2 nM.

Regarding `COCCn1c(C(=O)O)cc2cc(C)cc(N3C[C@@H](C)n4c(c(CCCOc5cc(C)c(Cl)c(C)c5)c5ccc(Cl)c(-c6c(C)ncnc6C)c54)C3=O)c21` [Example 594, (R)-7-(7-chloro-10-(3-(4-chloro-3,5-dimethylphenoxy)propyl)-6-(4,6-dimethylpyrimidin-5-yl)-4-methyl-1-oxo-3,4-dihydropyrazino[1,2-a]indol-2(1H)-yl)-1-(2-methoxyethyl)-5-methyl-1H-indole-2-carboxylic acid], in assay [1], the GI50 was determined as 230 nM. In addition, on Mcl-1, the Ki was below 0.2 nM.

`COCCOCc1cc(N2C[C@@H](C)n3c(c(CCCOc4cc(C)c(Cl)c(C)c4)c4ccc(Cl)c(-c5c(C)nn(C)c5C)c43)C2=O)c2c(c1)cc(C(=O)O)n2C` [Example 595, (R)-7-(7-chloro-10-(3-(4-chloro-3,5-dimethylphenoxy)propyl)-4-methyl-1-oxo-6-(1,3,5-trimethyl-1H-pyrazol-4-yl)-3,4-dihydropyrazino[1,2-a]indol-2(1H)-yl)-5-((2-methoxyethoxy)methyl)-1-methyl-1H-indole-2-carboxylic acid]: the GI50 in assay [1] is below 200 nM. Besides, the Ki on Mcl-1 is below 0.2 nM.

For `Cc1cc(N2C[C@@H](C)n3c(c(CCCOc4cc(C)c(Cl)c(C)c4)c4ccc(Cl)c(-c5c(C)nn(C)c5C)c43)C2=O)c2c(c1)cc(C(=O)O)n2CC(=O)N(C)C` [Example 596, (R)-7-(7-chloro-10-(3-(4-chloro-3,5-dimethylphenoxy)propyl)-4-methyl-1-oxo-6-(1,3,5-trimethyl-1H-pyrazol-4-yl)-3,4-dihydropyrazino[1,2-a]indol-2(1H)-yl)-1-(2-(dimethylamino)-2-oxoethyl)-5-methyl-1H-indole-2-carboxylic acid], the GI50 in assay [1] stood at 1300 nM. Besides, the Ki on Mcl-1 is below 0.2 nM.

In the case of `Cc1cc(N2C[C@@H](C)n3c(c(CCCOc4cc(C)c(Cl)c(C)c4)c4ccc(Cl)c(-c5c(C)nn(C)c5C)c43)C2=O)c2c(c1)cc(C(=O)O)n2CC(=O)N1CCOCC1` [Example 598, (R)-7-(7-chloro-10-(3-(4-chloro-3,5-dimethylphenoxy)propyl)-4-methyl-1-oxo-6-(1,3,5-trimethyl-1H-pyrazol-4-yl)-3,4-dihydropyrazino[1,2-a]indol-2(1H)-yl)-5-methyl-1-(2-morpholino-2-oxoethyl)-1H-indole-2-carboxylic acid], the GI50 in assay [1] was 1900 nM. On Mcl-1, the Ki was below 0.2 nM.

Regarding `Cc1cc(C)nc(Cn2c(C(=O)O)cc3cc(C)cc(N4C[C@@H](C)n5c(c(CCCOc6cc(C)c(Cl)c(C)c6)c6ccc(Cl)c(-c7c(C)nn(C)c7C)c65)C4=O)c32)c1` [Example 599, (R)-7-(7-chloro-10-(3-(4-chloro-3,5-dimethylphenoxy)propyl)-4-methyl-1-oxo-6-(1,3,5-trimethyl-1H-pyrazol-4-yl)-3,4-dihydropyrazino[1,2-a]indol-2(1H)-yl)-1-((4,6-dimethylpyridin-2-yl)methyl)-5-methyl-1H-indole-2-carboxylic acid], in assay [1], the GI50 is below 200 nM. The Ki on Mcl-1 was below 0.2 nM.
